Target: T1, human MDM2 (GST-hMDM2 1-188), interaction with biotinylated-p53 (1-83) (Homo sapiens, UniProt Q00987)
T1 construct: Amino acid residues 1-188 of human MDM2 were expressed; made in house; host or cells: Escherichia coli
Test: improved HTRF assay (HTRF2 assay), inhibition of HDM2-p53 interaction
Assay type: binding
Settings: 0.2 nM GST-hMDM2, 0.5 nM biotinylated-p53, 100 mM KF
Outline: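 GST-hMDM2 preincubated 20 min at RT with serially diluted compound, then biotinylated p53 (1-83, E. coli) added for 60 min. Detection with SA-XLent, anti-GST cryptate and KF, equilibrated >4 h; final DMSO 2%. TR-FRET read; % inhibition calculated relative to nutlin-3.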

T1 sequence (Q00987 1-188): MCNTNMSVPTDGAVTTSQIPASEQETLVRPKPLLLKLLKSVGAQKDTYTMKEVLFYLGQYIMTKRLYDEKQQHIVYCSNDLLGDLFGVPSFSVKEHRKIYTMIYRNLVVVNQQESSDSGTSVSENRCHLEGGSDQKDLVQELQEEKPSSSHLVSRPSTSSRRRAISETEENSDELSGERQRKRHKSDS

Row | Compound | IC50 [nM]
1 | CC[C@@H](CS(=O)(=O)C(C)(C)C)N1C(=O)[C@@H](CC(=O)O)O[C@H](c2cccc(Cl)c2)[C@H]1c1ccc(Cl)c(F)c1 (single isomer, unassigned) [Example 183, 2-((2R,5R,6R)-4-((S)-1-(tert-butylsulfonyl)butan-2-yl)-5-(4-chloro-3-fluorophenyl)-6-(3-chlorophenyl)-3-oxomorpholin-2-yl)acetic acid or 2-((2S,5R,6R)-4-((S)-1-(tert-butylsulfonyl)butan-2-yl)-5-(4-chloro-3-fluorophenyl)-6-(3-chlorophenyl)-3-oxomorpholin-2-yl)acetic acid] | 178
2 | O=C(O)C[C@H]1O[C@H](c2cccc(Cl)c2)[C@@H](c2ccc(Cl)cc2)N([C@H](CS(=O)(=O)Nc2ccccc2F)C2CC2)C1=O (single isomer, unassigned) [Example 294, 2-((2R,5R,6R)-6-(3-Chlorophenyl)-5-(4-chlorophenyl)-4-((S)-1-cyclopropyl-2-(N-(2-fluorophenyl)sulfamoyl)ethyl)-3-oxomorpholin-2-yl)acetic acid or 2-((2S,5R,6R)-6-(3-chlorophenyl)-5-(4-chlorophenyl)-4-((S)-1-cyclopropyl-2-(N-(2-fluorophenyl)sulfamoyl)ethyl)-3-oxomorpholin-2-yl)acetic acid] | < 1
3 | C[C@@H](CS(=O)(=O)C(C)(C)C)N1C(=O)[C@@H](CC(=O)NS(C)(=O)=O)O[C@H](c2cccc(Cl)c2)[C@H]1c1ccc(Cl)cc1 (single isomer, unassigned) [Example 238] | 1
4 | CNC(=O)C[C@@H]1O[C@H](c2cccc(Cl)c2)[C@@H](c2ccc(Cl)cc2)N([C@@H](C)CS(=O)(=O)C(C)(C)C)C1=O (single isomer, unassigned) [Example 227, 2-((2S,5R,6R)-4-((S)-1-(tert-butylsulfonyl)propan-2-yl)-6-(3-chlorophenyl)-5-(4-chlorophenyl)-3-oxomorpholin-2-yl)-N-methylacetamide or 2-((2R,5R,6R)-4-((S)-1-(tert-butylsulfonyl)propan-2-yl)-6-(3-chlorophenyl)-5-(4-chlorophenyl)-3-oxomorpholin-2-yl)-N-methylacetamide] | 11
5 | CC[C@@H](CN(c1ccccc1F)S(=O)(=O)C1CC1)N1C(=O)[C@@H]([C@@H](C)C(=O)O)O[C@H](c2cccc(Cl)c2)[C@H]1c1ccc(Cl)cc1 (single isomer, unassigned) [Example 252] | 1
6 | CC[C@@H](CN(c1ccccc1F)S(=O)(=O)C1CC1)N1C(=O)[C@@](C)(CC(=O)O)O[C@H](c2cccc(Cl)c2)[C@H]1c1ccc(Cl)cc1 (single isomer, unassigned) [Example 330, 2-((2R,5R,6R)-6-(3-Chlorophenyl)-5-(4-chlorophenyl)-4-((S)-1-(N-(2-fluorophenyl)cyclopropanesulfonamido)butan-2-yl)-2-methyl-3-oxomorpholin-2-yl)acetic acid or 2-((2S,5R,6R)-6-(3-chlorophenyl)-5-(4-chlorophenyl)-4-((S)-1-(N-(2-fluorophenyl)cyclopropanesulfonamido)butan-2-yl)-2-methyl-3-oxomorpholin-2-yl)acetic acid] | 1
7 | COc1ccc([C@H]2O[C@H](CC(=O)O)C(=O)N([C@H](CSC(C)(C)C)C3CC3)[C@@H]2c2ccc(Cl)cc2)cc1Cl (single isomer, unassigned) [Example 328, 2-((2R,5R,6R)-4-((S)-2-(tert-Butylthio)-1-cyclopropylethyl)-6-(3-chloro-4-methoxyphenyl)-5-(4-chlorophenyl)-3-oxomorpholin-2-yl)acetic acid or 2-((2S,5R,6R)-4-((S)-2-(tert-butylthio)-1-cyclopropylethyl)-6-(3-chloro-4-methoxyphenyl)-5-(4-chlorophenyl)-3-oxomorpholin-2-yl)acetic acid] | 12
8 | CC[C@@H](CS(=O)(=O)C(C)(C)C)N1C(=O)[C@@H](C[C@@H](O)CO)O[C@H](c2cccc(Cl)c2)[C@H]1c1ccc(Cl)cc1 (single isomer, unassigned) [Example 374] | 19
9 | CC(C)(C)S(=O)(=O)C[C@H](C1CCC1)N1C(=O)[C@@H](CC(=O)O)O[C@H](c2cccc(Cl)c2)[C@H]1c1ccc(Cl)cc1 (single isomer, unassigned) [Example 271, 2-((2R,5R,6R)-4-((S)-2-(tert-Butylsulfonyl)-1-cyclobutylethyl)-6-(3-chlorophenyl)-5-(4-chlorophenyl)-3-oxomorpholin-2-yl)acetic acid or 2-((2S,5R,6R)-4-((S)-2-(tert-butylsulfonyl)-1-cyclobutylethyl)-6-(3-chlorophenyl)-5-(4-chlorophenyl)-3-oxomorpholin-2-yl)acetic acid] | 5
10 | C[C@]1(CC(=O)O)O[C@H](c2cccc(Cl)c2)[C@@H](c2ccc(Cl)cc2)N([C@H](CN(c2ccccc2F)S(=O)(=O)C2CC2)C2CC2)C1=O (single isomer, unassigned) [Example 332, 2-((2R,5R,6R)-6-(3-Chlorophenyl)-5-(4-chlorophenyl)-4-((S)-1-cyclopropyl-2-(N-(2-fluorophenyl)cyclopropanesulfonamido)ethyl)-2-methyl-3-oxomorpholin-2-yl)acetic acid or 2-((2S,5R,6R)-6-(3-chlorophenyl)-5-(4-chlorophenyl)-4-((S)-1-cyclopropyl-2-(N-(2-fluorophenyl)cyclopropanesulfonamido)ethyl)-2-methyl-3-oxomorpholin-2-yl)acetic acid] | 27
11 | CC[C@@H](CCS(=O)(=O)C(C)(C)C)N1C(=O)[C@@H](CC(=O)O)O[C@H](c2cccc(Cl)c2)[C@H]1c1ccc(Cl)cc1 (single isomer, unassigned) [Example 221, 2-((2R,5R,6R)-4-((S)-1-(tert-butylsulfonyl)pentan-3-yl)-6-(3-chlorophenyl)-5-(4-chlorophenyl)-3-oxomorpholin-2-yl)acetic acid or 2-((2S,5R,6R)-4-((S)-1-(tert-butylsulfonyl)pentan-3-yl)-6-(3-chlorophenyl)-5-(4-chlorophenyl)-3-oxomorpholin-2-yl)acetic acid] | 12
12 | CC(C)S(=O)(=O)C[C@H](C1CC1)N1C(=O)[C@@H](CC(=O)O)O[C@H](c2cccc(Cl)c2)[C@H]1c1ccc(Cl)cc1 (single isomer, unassigned) [Example 157, 2-((2R,5R,6R)-6-(3-chlorophenyl)-5-(4-chlorophenyl)-4-((S)-1-cyclopropyl-2-(isopropylsulfonyl)ethyl)-3-oxomorpholin-2-yl)acetic acid or 2-((2S,5R,6R)-6-(3-chlorophenyl)-5-(4-chlorophenyl)-4-((S)-1-cyclopropyl-2-(isopropylsulfonyl)ethyl)-3-oxomorpholin-2-yl)acetic acid] | 1
13 | CC[C@@H](CS(=O)(=O)C1CCOCC1)N1C(=O)[C@@H](CC(=O)O)O[C@H](c2cccc(Cl)c2)[C@H]1c1ccc(Cl)cc1 (single isomer, unassigned) [Example 186, 2-((2R,5R,6R)-6-(3-chlorophenyl)-5-(4-chlorophenyl)-3-oxo-4-((S)-1-((tetrahydro-2H-pyran-4-yl)sulfonyl)butan-2-yl)morpholin-2-yl)acetic acid or 2-((2S,5R,6R)-6-(3-chlorophenyl)-5-(4-chlorophenyl)-3-oxo-4-((S)-1-((tetrahydro-2H-pyran-4-yl)sulfonyl)butan-2-yl)morpholin-2-yl)acetic acid] | 2
14 | CC[C@@H](CS(=O)(=O)C(C)(C)C)N1C(=O)[C@@H](Cc2nnnn2C)O[C@H](c2cccc(Cl)c2)[C@H]1c1ccc(Cl)cc1 (single isomer, unassigned) [Example 401, (2R,5R,6R)-4-((S)-1-(tert-Butylsulfonyl)butan-2-yl)-6-(3-chlorophenyl)-5-(4-chlorophenyl)-2-((1-methyl-1H-tetrazol-5-yl)methyl)morpholin-3-one or (2R,5R,6R)-4-((S)-1-(tert-butylsulfonyl)butan-2-yl)-6-(3-chlorophenyl)-5-(4-chlorophenyl)-2-((2-methyl-2H-tetrazol-5-yl)methyl)morpholin-3-one] | 38
15 | CC[C@@H](CN(c1ccccn1)S(=O)(=O)C1CC1)N1C(=O)[C@H](CC(=O)O)O[C@H](c2cccc(Cl)c2)[C@H]1c1ccc(Cl)cc1 (single isomer, unassigned) [Example 180, 2-((2S,5R,6R)-6-(3-chlorophenyl)-5-(4-chlorophenyl)-3-oxo-4-((S)-1-(N-(pyridin-2-yl)cyclopropanesulfonamido)butan-2-yl)morpholin-2-yl)acetic acid or 2-((2R,5R,6R)-6-(3-chlorophenyl)-5-(4-chlorophenyl)-3-oxo-4-((S)-1-(N-(pyridin-2-yl)cyclopropanesulfonamido)butan-2-yl)morpholin-2-yl)acetic acid] | < 1
16 | CC[C@@H](CS(=O)(=O)c1ccccc1Cl)N1C(=O)[C@@H](CC(=O)O)O[C@H](c2cccc(Cl)c2)[C@H]1c1ccc(Cl)cc1 (single isomer, unassigned) [Example 137, 2-((2R,5R,6R)-6-(3-chlorophenyl)-5-(4-chlorophenyl)-4-((S)-1-((2-chlorophenyl)sulfonyl)butan-2-O-3-oxomorpholin-2-yl)acetic acid or 2-((2S,5R,6R)-6-(3-chlorophenyl)-5-(4-chlorophenyl)-4-((S)-1-((2-chlorophenyl)sulfonyl)butan-2-yl)-3-oxomorpholin-2-yl)acetic acid] | 5
17 | CC(C)(C)S(=O)(=O)C[C@H](C1CC1)N1C(=O)[C@@H](CC(=O)Nc2ccccn2)O[C@H](c2cccc(Cl)c2)[C@H]1c1ccc(Cl)cc1 (single isomer, unassigned) [Example 355, 2-((2R,5R,6R)-4-((S)-2-(tert-Butylsulfonyl)-1-cyclopropylethyl)-6-(3-chlorophenyl)-5-(4-chlorophenyl)-3-oxomorpholin-2-yl)-N-(pyridin-2-yl)acetamide or 2-((2S,5R,6R)-4-((S)-2-(tert-butylsulfonyl)-1-cyclopropylethyl)-6-(3-chlorophenyl)-5-(4-chlorophenyl)-3-oxomorpholin-2-yl)-N-(pyridin-2-yl)acetamide] | 4

Reference: US9376425B2, “Heterocyclic compounds as MDM2 inhibitors for the treatment of cancer” (AMGEN INC., priority 2011, dated 2016)
